The values below come from publication PMC6362038, “Secondary structures and cell-penetrating abilities of arginine-rich peptide foldamers” (Scientific Reports, 2019).

Peptide text beside a SMILES is read from it. * marks the point of attachment. 5FAM = O=C1OC2(c3ccc(O)cc3Oc3cc(O)ccc32)c2ccc(C(=O)*)cc21

Data set [1] is described as follows: Circular dichroism, R value of secondary structure. It counts as physicochemical. The following applies: CD, peptide 24 µM. Here is the method: The conformations of peptides were analyzed by circular dichroism (CD) in pH 7.3 4-(2-hydroxyethyl)-1-piperazineethanesulfonic acid (HEPES) buffer (Fig. 3a), 40% 2,2,2-trifluoroethanol (TFE)/pH 7.3 HEPES buffer (Fig. 3b), and 75% TFE/pH 7.3 HEPES buffer (Fig. 3c). Negative maxima at 205–209 nm (π → π*) and 222–225 nm (n → π*) were diagnostic of a right-handed (P) helical structure[31]–[33]. The ratio of R (θπ → π*/θn → π*) has been used as a parameter to distinguish an α-helical structure from a 3_10-helical structure (i.e., R ≈ 1: α-helix; R < 0.4: 3_10-helix) (Table S1)[34],[35]. Helical content (helicity) of peptides was estimated from the intensity of θn → π* values. A negative maximum at 195–200 nm (π → π*) and a weak positive maximum at 217 nm (n → π*) were diagnostic of a random coil structure. […] By adding TFE to HEPES buffer, (αMe)Leu peptide formed a complete right-handed (P) helical structure in a mixture of α- and 3_10-helices (R = 0.57 and 0.56 in Figs 3b and […], respectively). The dominant structures of Ac5c and Leu peptides changed by increased the rate of TFE to eventually be α-/3_10-helices (R = 0.52) and 3_10-helix (R = 0.30), respectively (Fig. 3c). […] Cbz-[L-Leu-L-Leu-(S,S)-Ac5c^dOM]3-OMe was reported to form a right-handed (P) helical structure in 50% TFE/H2O[37]. L-Leu might contribute to stabilization of the peptide helical secondary structure as well as (S,S)-Ac5c^dOM. Destabilization of the peptide helical secondary structure by L-Arg might be stronger than stabilization of it by (S,S)-Ac5c^dOM. Taken together with the results of CD spectra (Fig. 3), in which helicity of peptides was estimated from the intensity of θn → π* values, stability in the helicity of the peptides in the current study was as follows: (αMe)Leupeptide>Ac5cpeptide≈Leupeptide>Ac5c^dOMpeptide≈Argpeptide.
Figure 3 CD spectra of peptides in (a) HEPES buffer, (b) 40% TFE/HEPES buffer, and (c) 75% TFE/HEPES buffer. Peptide concentration: 24 µM.
Optical rotation [α]^rtD was measured using a Jasco DIP-370 polarimeter (JASCO, Tokyo, Japan) using a 0.5 dm cell. Infrared (IR) spectra were recorded using a Shimadzu IR Affinity-1 spectrometer (Shimadzu Corporation, Kyoto, Japan) for conventional measurement (KBr). CD spectra were recorded using a Jasco J-720W spectropolarimeter (JASCO) with a 1.0 mm path length cell. ^1H NMR (400 MHz) and ^13C NMR (100 MHz) spectra were determined using a JEOL AL 400 spectrometer (JEOL Ltd, Tokyo, Japan). Fast atom bombardment (FAB)-MS was measured using a JEOL JMS-700N (JEOL). MALDI-TOF-MS spectra were recorded using a Bruker Ultrax spectrometer (Bruker Daltonics, Fermont, CA). Piperidine was purchased from Tokyo Chemical Industry Co., Ltd. (Tokyo, Japan). Fmoc-L-Arg(Pbf)-OH, Fmoc-Gly-OH, Fmoc-L-Leu-OH, and CLEAR-Amide resin were purchased from the Peptide Institute., Inc. (Osaka, Japan). Fmoc-(S)-(αMe)Leu-OH was obtained from Nagase & Co., Ltd. (Kyoto, Japan). Fmoc-Ac5c-OH was purchased from Watanabe Chemical Industries, Ltd. (Hiroshima, Japan). HATU, HBTU, HOAt, and HOBt were from AAPPTec (Louisville, KY). COMU was from Novabiochem (Tokyo, Japan). CF and Dulbecco’s modified Eagle’s medium (DMEM) were obtained from Sigma-Aldrich Co. (St. Louis, MO). diisopropylethylamine (DIPEA) and heparin were purchased from Wako Pure Chemicals Co., Inc. (Osaka, Japan). Diethyl ether was from Kanto Chemical Co., Inc. (Tokyo, Japan). Trifluoroacetic acid (TFA) was obtained from Nacalai Tesque, Co., Inc. (Kyoto, Japan). Hoechst 33342 and a Cell counting kit-8 were purchased from Dojindo Laboratories (Kumamoto, Japan). LysoTracker Red was from Molecular Probes (Eugene, OR).
Table S1. R values (qπ → π*/qn → π*) of synthetic peptides.
R value (qπ → π*/qn → π* )
HEPES 40% TFE/HEPES 75% TFE/HEPES
For orientation: Circular dichroism is the unequal absorption of left and right circularly polarised light.

Data set [2] concerns HeLa cells. Put plainly: Cellular uptake of CF-labeled peptides into HeLa cells (flow cytometry). The data set is classed as cell-based. The following applies: 1 µM peptide, 2, 6 and 24 h, DMEM 10% FBS, heparin wash, trypsinized, flow cytometry fluorescence, mean of n = 3. Here is the method: Cellular uptake of peptides was assessed against HeLa (Fig. 5a) and CHO-K1 cells (Fig. 5b) at a concentration of 1 µM and various incubation times (2, 6, and 24 h). […] Not only stabilities against protease digestion but also other factors might contribute to prolongation of the cell-penetrating ability of peptides. […] The number of Arg residues in Arg-rich peptides is very important for their cell-penetrating ability, and six Arg are not enough. […] Substitution of Arg in Arg peptide with Ac5c, Ac5c^dOM, or (αMe)Leu positively affected its cell-penetrating ability compared with Aib. In comparison, among the peptides containing dAAs, (αMe)Leu peptide was the best for HeLa cell, Ac5c peptide was the best for CHO-K1 cell, and Ac5c^dOM peptide was the worst for both cell types (Fig. 5). Although the best peptides were different depending on cell type, the worst peptide was same for both cell types. […] Taken together, a stable helical structure by introducing dAAs into Arg-rich peptide enhanced their cell-penetrating abilities.
HeLa or CHO-K1 cells were seeded on 24-well culture plates (100,000 cells/well) and incubated in 400 µL of DMEM containing 10% FBS. The medium was then replaced with fresh medium, and a peptide solution was added to each well at a concentration of 1 µM. After each incubation time, the medium was removed and cells were washed with ice-cold PBS with heparin (20 units/mL) and trypsinized. After the addition of medium containing 10% FBS, fluorescence intensity was detected and acquired using an On-chip Flow (On-chip Biotechnologies Co., Ltd, Tokyo, Japan). The results are presented as a mean and standard deviation obtained from 3 samples.
(A flow cytometer gives signals particle by particle.)

A short description of data set [3]: Resistance to protease digestion with pronase. The data set is classed as in vitro ADME, Streptomyces griseus. The settings on record: 10 µM peptide in 2.5 × 10^−6 w/v% pronase/PBS, 37 °C, RP-HPLC, α-CHCA internal standard, read-out: intact peptide after incubation with pronase. The text has this:
(§1) Next, we examined the stability of peptides against protease digestion using trypsin (Fig. 4a) and pronase (Fig. 4b). One of the advantages of peptide foldamers containing dAAs is their high resistance to degradation by proteases[38]–[40]. Trypsin is a serine protease that cleaves amide bonds at the C terminus of cationic amino acids such as Arg and lysine. Pronase is a non-specific protease mixture produced in the culture supernatant of Streptomyces griseus. Ac5c, Ac5c^dOM, (αMe)Leu, and Leu peptides were incubated with trypsin or pronase for 1, 2, and 4 h, and then rate of intact peptide was evaluated by RP-HPLC using α-cyano-4-hydroxycinnamic acid (α-CHCA) as an internal standard. Leu peptide was promptly degraded by both trypsin and pronase, and reached 0% intact peptide after 4 h incubation in a similar manner to Arg peptide reported previously[24],[25]. On the other hand, approximately 80% of Ac5c, Ac5c^dOM, and (αMe)Leu peptides remained intact even after 4 h incubation. Introduction of dAAs into peptides markedly elevated resistance to protease digestion, whether or not peptides formed stable helical structures. In other words, peptides composed of only natural α-amino acids were easily degraded by proteases independently of their peptide secondary structures.
(§2) One-hundred microliters of peptide solution (10 µM) in 2.5 × 10^−6 w/v% trypsin or pronase/phosphate buffer saline (PBS) was incubated at 37 °C for 0, 1, 2, and 4 h. After each incubation time, 250 µL of 1% TFA/PBS solution was added to inactivate the proteases, and 50 µL of 1/2 diluted saturated α-CHCA solution was added as an internal standard, followed by HPLC analysis, which was performed using the above-mentioned conditions.

Data set [4] in a line: Resistance to protease digestion with trypsin. The data set is classed as in vitro ADME. The following applies: 10 µM peptide in 2.5 × 10^−6 w/v% trypsin/PBS, 37 °C, RP-HPLC, α-CHCA internal standard, read-out: intact peptide after incubation with trypsin.
Excerpt: as §1, §2

For data set [5], the system named is HeLa cells. The settings on record: 24 h incubation; cited from earlier work. Here is the method: Cellular uptake of peptides was assessed against HeLa (Fig. 5a) and CHO-K1 cells (Fig. 5b) at a concentration of 1 µM and various incubation times (2, 6, and 24 h). […] Furthermore, the cellular uptake of Ac5c^dOM peptide increased up t ...

In the case of `CC(C)C[C@H](NC(=O)[C@H](CCCNC(=N)N)NC(=O)[C@H](CCCNC(=N)N)NC(=O)[C@H](CC(C)C)NC(=O)[C@H](CCCNC(=N)N)NC(=O)[C@H](CCCNC(=N)N)NC(=O)[C@H](CC(C)C)NC(=O)[C@H](CCCNC(=N)N)NC(=O)[C@H](CCCNC(=N)N)NC(=O)CNC(=O)c1ccc2c(c1)C(=O)OC21c2ccc(O)cc2Oc2cc(O)ccc21)C(N)=O` [Leu peptide] (5FAM-GRRLRRLRRL-NH2), the “R value (θπ → π*/θn → π*)” value in data set [1] (40% TFE/pH 7.3 HEPES buffer) was 0.26; in data set [1] (75% TFE/pH 7.3 HEPES buffer), 0.30; in data set [1] (pH 7.3 HEPES buffer, R ≈ 1 α-helix, R < 0.4 3_10-helix) it was “No significant maxima”. The “cellular uptake, course over incubation time” value in the data set with HeLa cells [2] was “small decrease”. Moreover, the remaining at 4 h, 10 µM in data set [3] and in data set [4] was 0% each time.
Regarding “(L-Arg-L-Arg-Aib)3 [(L-Arg-L-Arg-Aib)3 nonapeptide]”, in the data set with HeLa cells [5], the “cell-penetrating ability compared with Arg nonapeptide” value is given as “much lower cell-penetrating ability than Arg nonapeptide”.
